As a reminder, the EC50 is the concentration that produces a half-maximal response. The pEC50 is the negative decadic logarithm of the EC50, by convention in mol/L.

The values that follow come from PubChem BioAssay AID493145 (Sanford-Burnham Center for Chemical Genomics, 2011).

pEC50: −log10 of the molar value. Where “and” joins values, the source holds several entries; their conditions need not be identical. Identical values can stand only once. Calls of active or inactive are those of the source. The rule behind the calls is not given here. Where only a bound is given, the exact number is not on record here.

Intestinal-type alkaline phosphatase (Homo sapiens), sequence (P09923 whole entry, looked up): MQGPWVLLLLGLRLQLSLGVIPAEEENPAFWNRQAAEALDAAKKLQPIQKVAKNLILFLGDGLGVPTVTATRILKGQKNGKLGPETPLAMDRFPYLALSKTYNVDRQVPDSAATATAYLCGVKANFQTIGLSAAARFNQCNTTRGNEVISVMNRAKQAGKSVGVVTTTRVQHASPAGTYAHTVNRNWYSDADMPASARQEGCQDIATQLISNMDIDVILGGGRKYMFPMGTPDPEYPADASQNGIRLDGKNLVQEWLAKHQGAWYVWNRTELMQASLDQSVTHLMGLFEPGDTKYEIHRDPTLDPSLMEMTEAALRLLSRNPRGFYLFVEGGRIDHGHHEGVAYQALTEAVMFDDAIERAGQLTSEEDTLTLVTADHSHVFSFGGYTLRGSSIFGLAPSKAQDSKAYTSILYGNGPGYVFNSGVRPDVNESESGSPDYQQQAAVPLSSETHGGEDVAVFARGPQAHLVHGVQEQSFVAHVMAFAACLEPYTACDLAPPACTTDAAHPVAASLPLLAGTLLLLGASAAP

This assay has as its target Intestinal-type alkaline phosphatase (Homo sapiens) (UniProt P09923). The experiment in a line: human IAP activators, SAR follow-up, mouse IAP activator project, biochemical, human enzyme for mouse series (AID 493145). The settings on record: purified human intestinal alkaline phosphatase, enzymatic activity.
As for `COc1ccc(OC)c(NC(=O)CCNS(=O)(=O)c2ccc3[nH]c(=O)oc3c2)c1`, the EC50 was > 100 µM (inactive).
With `COc1ccccc1CNC(=O)CCNS(=O)(=O)c1ccc2[nH]c(=O)oc2c1`, the EC50 was > 100 µM (inactive).
Still for that read-out and setting: in the case of `COc1ccc(CNC(=O)CSc2sc3c(O)cc(=O)[nH]c3c2C#N)cc1` it was > 100 µM (inactive); in that of `CCOC(=O)N1CCN(S(=O)(=O)c2ccc3[nH]c(=O)oc3c2)CC1`, > 100 µM (inactive).
The same measure, in the same setting: under `COc1cc(C(=O)NNC(=O)C2CC2)cc(OC)c1OC` stands > 100 µM (inactive).
On the same count and under the same terms, under `CC(C(=O)Nc1cccc(C(=O)O)c1)N1C(=O)/C(=C\c2ccco2)SC1=S` (stereo not drawn) stands > 100 µM (inactive); under `NS(=O)(=O)c1ccc(-c2ccc(/C=C3\SC(=S)N(C4CCS(=O)(=O)C4)C3=O)o2)cc1` (stereo not drawn), > 100 µM (inactive).
As for `O=C(C1CCN(S(=O)(=O)c2ccc3[nH]c(=O)oc3c2)CC1)N1CC=C(c2ccccc2)CC1`, the EC50 was > 100 µM (inactive).
Consider `CC(C)c1ccc(NC(=O)CCNS(=O)(=O)c2ccc3[nH]c(=O)oc3c2)cc1`, for which the EC50 is > 100 µM (inactive).
Same read-out and setting: under `O=C(CN1C(=O)/C(=C/c2ccco2)SC1=S)N[C@@H]1CSC[C@@H]1O` stands > 100 µM (inactive).
The same measure, in the same setting: under `N#Cc1c(SCC(=O)Nc2ccc(C(F)(F)F)cc2)sc2c(O)cc(=O)[nH]c12` stands > 100 µM (inactive).
Turning to `CCCSc1nnc(NC(=O)CSc2sc3c(O)cc(=O)[nH]c3c2C#N)s1`, the EC50 was > 100 µM (inactive).
Same read-out and setting: under `CCOC(=O)N1CCC(NC(=O)CSc2sc3c(O)cc(=O)[nH]c3c2C#N)CC1` stands > 100 µM (inactive).
The same measure, in the same setting: under `N#Cc1c(SCC(=O)Nc2nccs2)sc2c(O)cc(=O)[nH]c12` stands > 100 µM (inactive); under `O=C(N/N=C/C1CC2CCC1C2)c1cc(O)c(O)c(O)c1` (stereo not drawn), > 100 µM (inactive).
For `COc1cc(C(=O)NNc2nc3cc4c(cc3s2)OCO4)cc(OC)c1OC`, the pEC50 was 4.87.
For the molecule `Cc1cc(=O)oc2cc(NC(=S)NCCC(c3ccccc3)c3ccccc3)ccc12`, the EC50 was > 100 µM (inactive).
For `CC(C)N1CCC(=NNC(=O)c2cc(O)c(O)c(O)c2)CC1`, the EC50 was > 100 µM (inactive) and 66.6 µM.
Take `O=C(N/N=C/c1ccccc1F)c1cc(O)c(O)c(O)c1`: the EC50 was > 100 µM (inactive).
Still for that read-out and setting: in the case of `O=C(CN1C(=O)/C(=C\c2ccco2)SC1=S)Nc1cccc(C(=O)O)c1` it was > 100 µM (inactive); in that of `N#Cc1c(SCC(=O)NCc2ccc3c(c2)OCO3)sc2c(O)cc(=O)[nH]c12`, > 100 µM (inactive).
On the same count and under the same terms, in the case of `COc1cccc(NC(=O)CN(C)S(=O)(=O)c2ccc3[nH]c(=O)oc3c2)c1` it was > 100 µM (inactive).
The same measure, in the same setting: under `Cc1ccc(C)c(NC(=O)CCNS(=O)(=O)c2ccc3[nH]c(=O)oc3c2)c1` stands > 100 µM (inactive); under `CC(C(=O)Nc1ccccc1C(=O)O)N1C(=O)/C(=C\c2ccco2)SC1=S` (stereo not drawn), > 100 µM (inactive).
As to `Cc1cc(NC(=O)CSc2sc3c(O)cc(=O)[nH]c3c2C#N)ccc1Br`, the EC50 is > 100 µM (inactive).
On to `O=C(CCNS(=O)(=O)c1ccc2[nH]c(=O)oc2c1)Nc1ccccc1`, for which the EC50 was > 100 µM (inactive).
Same read-out and setting: in the case of `O=C(CN1C(=O)/C(=C\c2ccco2)SC1=S)Nc1ccc(C(=O)O)cc1` it was > 100 µM (inactive).
As for `COc1cc(C(=O)NNC(=O)c2n[nH]c3ccccc23)cc(OC)c1OC`, the pEC50 is 4.62.
With `COC(=O)NNC(=O)c1cc(OC)c(OC)c(OC)c1`, the EC50 was > 100 µM (inactive).
On to `O=C(NCCc1ccc(Cl)cc1)C1CCCN(S(=O)(=O)c2ccc3[nH]c(=O)oc3c2)C1` (stereo not drawn), for which the EC50 was > 100 µM (inactive).
The same measure, in the same setting: in the case of `Cc1csc(NC(=O)CSc2sc3c(O)cc(=O)[nH]c3c2C#N)n1` it was > 100 µM (inactive); in that of `CC(C(=O)NCCc1ccc(O)c(O)c1)N1C(=O)/C(=C\c2ccco2)SC1=S` (stereo not drawn), > 100 µM (inactive); in that of `COc1cccc(CNC(=O)CCNS(=O)(=O)c2ccc3[nH]c(=O)oc3c2)c1`, > 100 µM (inactive).
